Source: patent US12239711B2, “Cereblon ligands and bifunctional compounds comprising the same” (Arvinas Operations, Inc., priority 2014, dated 2025)

Tests used:
[1] = test system: estrogen responsive element/promoter/luciferase reporter gene; assay: ERE Luciferase Assay in T47D-KBluc cells; format: cell-based, human; settings: Homo sapiens, 24 hours, luciferase activity, read-out: Target Engagement IC50
Protocol: 1. ERE Luciferase Assay for Compounds in Table 5.
T47D-KBluc cells (ATCC® #CRL_2865, T47D human breast cancer cells stably transfected with estrogen responsive element/promoter/luciferase reporter gene) were seeded into 96-well white opaque plates in RPMI growth medium supplemented with 10% fetal bovine serum (FBS) and allowed to adhere overnight in a 37° C. humidified incubator. The following day, cells were treated with PROTACs in a 12-point concentration curve (top final concentration of 300 nM with subsequent concentrations being 3-fold less with 2 pM being the lowest concentration in the assay). Each PROTAC was tested independently in two experiments on 96-well plates. After 24 hours, media was removed and lysis buffer was added to the wells. Following lysis, Bright-Glo™ Luciferase Assay Substrate (Promega, Madison WI) was added and the luciferase activity was measured using a Cytation 3 plate reader (BioTek™, Winooski, VT). Each compound was assayed in duplicate and the activity was calculated as IC50 using GraphPad Prism software (San Diego, CA).

[2] = biological target: T1, Estrogen Receptor-Alpha (ERα) (Homo sapiens, UniProt P03372); assay: Estrogen Receptor-Alpha (ERα) degradation assay in MCF-7 cells (western blot / In-Cell Western); format: cell-based; settings: for Dmax: MCF7, read-out: ER Dmax; for DC50: read-out: ER DC50
T1 construct: endogenous in cells; host or cells: MCF-7 (MCF7) cells
T1 sequence (P03372 1-595): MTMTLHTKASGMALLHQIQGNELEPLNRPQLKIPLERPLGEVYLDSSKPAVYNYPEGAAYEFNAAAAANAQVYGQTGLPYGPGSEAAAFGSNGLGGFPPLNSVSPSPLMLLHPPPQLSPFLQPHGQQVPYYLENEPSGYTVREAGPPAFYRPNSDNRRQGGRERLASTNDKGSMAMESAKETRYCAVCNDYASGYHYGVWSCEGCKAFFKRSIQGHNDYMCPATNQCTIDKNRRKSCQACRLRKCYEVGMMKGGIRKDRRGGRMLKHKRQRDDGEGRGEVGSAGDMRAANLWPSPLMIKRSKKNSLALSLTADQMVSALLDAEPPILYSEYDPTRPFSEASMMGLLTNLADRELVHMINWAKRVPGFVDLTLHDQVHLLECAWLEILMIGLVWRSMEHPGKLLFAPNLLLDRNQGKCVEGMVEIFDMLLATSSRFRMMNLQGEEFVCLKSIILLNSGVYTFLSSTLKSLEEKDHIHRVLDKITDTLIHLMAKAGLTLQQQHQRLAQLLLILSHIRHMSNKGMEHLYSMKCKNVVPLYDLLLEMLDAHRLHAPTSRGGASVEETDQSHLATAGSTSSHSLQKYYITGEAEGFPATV
Protocol: 2. Estrogen Receptor-Alpha (ERα) Degradation Assay in MCF-7 Cells Using Western Blot Method for Table 5.
The exemplary novel ERα degraders were assessed for their activity in degrading ERα in MCF-7 cells via western blot. The assay was carried out in the presence of 10% FBS or high percentage of human or mouse serum. Protocols of the western blot assay are described below.
MCF7 cells were grown in DMEM/F12 with 10% FBS and seeded at 24,000 cells per well in 100 μl into 96-well clear tissue culture plates. The following day, the cells were treated with PROTACs in a […] concentration curve with 100 nM being the top concentration and serial dilutions to make the other concentrations (30 nM, 10 nM, 3 nM, 1 nM, and 0.3 nM). At all concentrations, 0.01% DMSO is the final concentration in the well. The following day, the plates are aspirated, washed with 50 μl of cold PBS. The cells are lysed with 50 μl/well 4° C. Cell Lysis Buffer (Catalog #9803; Cell Signaling Technology, Danvers, MA) (20 mM Tris-HCL (pH 7.5), 150 mM NaCl, 1 mM Na2EDTA, 1 mM EGTA, 1% Triton, 2.5 mM sodium pyrophosphate, 1 mM B-glycerophosphate, 1 mM sodium vanadate, 1 ug/ml leupeptin). Lysates were clarified at 16,000×g for 10 minutes, and 2 μg of protein was subjected to SDS-PAGE analysis and followed by immunoblotting according to standard protocols. The antibodies used were ERα (Cell Signaling Technologies Catalog #8644), and Tubulin (Sigma Catalog #T9026; St. Louis, MO). Detection reagents were Clarity Western ECL substrate (Bio-Rad Catalog #170-5060; Hercules, CA).
Alternatively, MCF7 cells were grown in DMEM/F12 with 10% FBS and seeded at 24,000 cells per well in 500 μl in 24-well clear tissue culture plates. The following day, the cells were treated with PROTACs in a 5-point concentration curve (100 nM, 33 nM, 11 nM, 3.7 nM, and 1.2 nM) in the presence of 0.01% DMSO. After 72 hours, the wells are aspirated and washed with 500 μl of PBS. The cells are lysed with 100 μl/well 4° C. Cell Lysis Buffer (Catalog #9803; Cell Signaling Technology, Danvers, MA) (20 mM Tris-HCL (pH 7.5), 150 mM NaCl, 1 mM Na2EDTA, 1 mM EGTA, 1% Triton, 2.5 mM sodium pyrophosphate, 1 mM B-glycerophosphate, 1 mM sodium vanadate, 1 ug/ml leupeptin). Lysates were clarified at 16,000×g for 10 minutes, and 2 μg of protein was subjected to SDS-PAGE analysis and followed by immunoblotting according to standard protocols. The antibodies used were ERα (Cell Signaling Technologies Catalog #8644), and Tubulin (Sigma Catalog #T9026; St. Louis, MO). Detection reagents were Clarity Western ECL substrate (Bio-Rad Catalog #170-5060; Hercules, CA).
3. Estrogen Receptor-Alpha (ERα) Degradation Assay Using In-Cell Western™ Assay for Table 5.
Degradation of ERα by claimed compounds were determined in MCF7 cells using an In-Cell Western™ assay. Briefly, MCF7 cells were plated in 96-well plates (2000 cells per well in 100 μl media) and incubated at 37° C. under an atmosphere of 5% CO2 in a humidified incubator overnight. One-hundred (100) μl of media containing test compound (at 2× concentration) was added to the appropriate wells to provide 11 serially decreasing concentrations (top final concentration, 1 μM then 3-fold less for the next 10 concentrations); a vehicle control (DMSO) was also added for each compound. For each experiment, all compounds were assayed in duplicate plates. Cells were then incubated for 3 or 5 days in the above-mentioned environment. The assay was terminated by removal of media, a single wash with ice-cold PBS and the addition of 50 μl paraformaldehyde (PFA: 4% in PBS). After 15 minutes in PFA at room temperature, the cells were permeabilized in Tris-phosphate-buffered saline with Tween (0.1%) (TBST) supplemented with Triton X-100 (0.5%) for 15 minutes. Cells were then blocked in BSA (TBST with BSA, 3%) for one hour. […]

Row | Structure (SMILES) | IC50 [1] [nM] | Dmax [2] [%] | DC50 [2] [nM]
1 | O=C1CCC(N2Cc3cc(N4CCN(CCC5CCN(c6ccc([C@@H]7c8ccc(O)cc8CC[C@@H]7c7ccccc7)cc6)CC5)CC4)cc(OC(F)F)c3C2=O)C(=O)N1 (stereo partly drawn) [compound 22, 3-[7-(difluoromethoxy)-5-[4-[2-[1-[4-[(1R,2S)-6-hydroxy-2-phenyl-tetralin-1-yl]phenyl]-4-piperidyl]ethyl]piperazin-1-yl]-1-oxo-isoindolin-2-yl]piperidine-2,6-dione] | 4.4 | ≥ 75 | 1 to 10
2 | O=C1CCC(N2Cc3cc(N4CCN(CCC5CC(Oc6ccc([C@@H]7c8ccc(O)cc8CC[C@@H]7c7ccccc7)cc6)C5)CC4)cc(OC(F)F)c3C2=O)C(=O)N1 (stereo partly drawn) [compound 23, 3-[7-(difluoromethoxy)-5-[4-[2-[3-[4-[(1R,2S)-6-hydroxy-2-phenyl-tetralin-1-yl]phenoxy]cyclobutyl]ethyl]piperazin-1-yl]-1-oxo-isoindolin-2-yl]piperidine-2,6-dione] | 1.8 | 50 to 75 | 1 to 10
3 | COc1cc(N2CCN(CCC3CCN(c4ccc([C@@H]5c6ccc(O)cc6CC[C@@H]5c5ccccc5)cc4F)CC3)CC2)cc2c1C(=O)N(C1CCC(=O)NC1=O)C2 (stereo partly drawn) [compound 24, 3-[5-[4-[2-[1-[2-fluoro-4-[(1R,2S)-6-hydroxy-2-phenyl-tetralin-1-yl]phenyl]-4-piperidyl]ethyl]piperazin-1-yl]-7-methoxy-1-oxo-isoindolin-2-yl]piperidine-2,6-dione] | 0.7 | ≥ 75 | 1 to 10
4 | O=C1CCC(n2nc3cc(N4CCN(CCCCCOc5ccc([C@@H]6c7ccc(O)cc7CC[C@@H]6c6ccccc6)cc5)CC4)ccn3c2=O)C(=O)N1 (stereo partly drawn) [compound 25, 3-{7-[4-(5-{4-[(1R,2S)-6-hydroxy-2-phenyl-1,2,3,4-tetrahydronaphthalen-1-yl]phenoxy}pentyl)piperazin-1-yl]-3-oxo-2H,3H-[1,2,4]triazolo[4,3-a]pyridin-2-yl}piperidine-2,6-dione] | 0.5 | < 50 | 
5 | COc1cc(N2CCN(CC(=O)C3CC(Oc4ccc([C@@H]5c6ccc(O)cc6CC[C@@H]5c5ccccc5)cc4)C3)CC2)cc2c1C(=O)N(C1CCC(=O)NC1=O)C2 (stereo partly drawn) [compound 26, 3-[5-[4-[2-[3-[4-[(1R,2S)-6-hydroxy-2-phenyl-tetralin-1-yl]phenoxy]cyclobutyl]-2-oxo-ethyl]piperazin-1-yl]-7-methoxy-1-oxo-isoindolin-2-yl]piperidine-2,6-dione] | 0.7 | ≥ 75 | < 1
6 | O=C1CCC(N2Cc3cc(N4CCN(CCC5(O)CC(Oc6ccc([C@@H]7c8ccc(O)cc8CC[C@@H]7c7ccccc7)cc6)C5)CC4)cc(OC(F)F)c3C2=O)C(=O)N1 (stereo partly drawn) [compound 27, 3-[7-(difluoromethoxy)-5-[4-[2-[1-hydroxy-3-[4-[(1R,2S)-6-hydroxy-2-phenyl-tetralin-1-yl]phenoxy]cyclobutyl]ethyl]piperazin-1-yl]-1-oxo-isoindolin-2-yl]piperidine-2,6-dione] | 0.5 | 50 to 75 | < 1
7 | COc1cc(N2CCN(CCC3(O)CC(Oc4ccc([C@@H]5c6ccc(O)cc6CC[C@@H]5c5ccccc5)cc4)C3)CC2)cc2c1C(=O)N(C1CCC(=O)NC1=O)C2 (stereo partly drawn) [compound 28, 3-[5-[4-[2-[1-hydroxy-3-[4-[(1R,2S)-6-hydroxy-2-phenyl-tetralin-1-yl]phenoxy]cyclobutyl]ethyl]piperazin-1-yl]-7-methoxy-1-oxo-isoindolin-2-yl]piperidine-2,6-dione] | 0.3 | ≥ 75 | < 1
8 | O=C1CCC(N2C(=O)c3ccc(N4CCN(CC5CCN(c6ccc([C@@H]7c8ccc(O)cc8CC[C@@H]7c7ccccc7)cc6)CC5)CC4)cc3C23CC3)C(=O)N1 (stereo partly drawn) [compound 29, 3-(6′-{4-[(1-{4-[(1R,2S)-6-hydroxy-2-phenyl-1,2,3,4-tetrahydronaphthalen-1-yl]phenyl}piperidin-4-yl)methyl]piperazin-1-yl}-3′-oxo-2′,3′-dihydrospiro[cyclopropane-1,1′-isoindole]-2′-yl)piperidine-2,6-dione] | 2.4 | < 50 | 
9 | O=C1CCC(N2C(=O)c3ccc(N4CCN(CC5CCN(c6ccc([C@@H]7c8ccc(O)cc8CC[C@@H]7c7ccccc7)cc6F)CC5)CC4)cc3C23CC3)C(=O)N1 (stereo partly drawn) [compound 30, 3-[6′-[4-[[1-[2-fluoro-4-[(1R,2S)-6-hydroxy-2-phenyl-tetralin-1-yl]phenyl]-4-piperidyl]methyl]piperazin-1-yl]-3′-oxo-spiro[cyclopropane-1,1′-isoindoline]-2′-yl]piperidine-2,6-dione] | 2.1 | 50 to 75 | 1 to 10
